Values belong to the compound of their own block, whether it stands above or below them. Bridge positions count the residues as written; N and C are the ends. Peptide text beside a SMILES is read from it.
Tests used:
human GC-C [1] = molecular target: T1, human GC-C (Homo sapiens, UniProt P25092, F281L); experiment: cGMP competitive ELISA / Direct Cyclic GMP Enzyme Immunoassay, GC-C-expressing 293T cell line; type: cell-based; parameters: expressed in transfected cells; host or cells: 293T
Procedure: Populations of cells were tested using functional criteria. The Direct Cyclic GMP Enzyme Immunoassay Kit (Cat. 900-014; AssayDesigns, Inc.) was used according to manufacturer's instructions: (http://www.assaydesigns.com/objects/catalog//product/extras/900-014.pdf). Cells were tested at 4 different densities in 96- or 384-well plates and responses were analyzed. The following conditions were used for the GC-C-expressing cell lines of the invention: • Clone screening: 1:2 and 1:3 splits of confluent 96-well plates 48 hour prior to assay, 30 minutes guanylin treatment. • Dose-response studies: densities of 20,000, 40,000, 60,000, 80,000, 120,000 and 160,000 per well, 30 minutes guanylin treatment (see Example 8). • Z′ studies: densities of 160,000 and 200,000 per well were used, 30 minutes guanylin treatment (see Example 9).
A competitive ELISA for detection of cGMP was used to characterize native GC-C function in the produced GC-C-expressing cell line. Cells expressing GC-C were maintained under standard cell culture conditions in Dulbecco's Modified Eagles medium (DMEM) supplemented with 10% fetal bovine serum, glutamine and HEPES and grown in T175 cm flasks. For the ELISA, the cells were plated into coated 96-well plates (poly-D-lysine).
Cells were washed twice with serum-free medium and incubated with 1 mM IBMX for 30 minutes. Desired activators (i.e., guanylin, 0.001-40 μM) were then added to the cells and incubated for 30-40 minutes. Supernatant was removed, and the cells were washed with TBS buffer. […]. This was followed by lysis with 0.1N HCl and a freeze/thaw cycle at −20° C./room temperature. […]
All of the following steps were performed at room temperature, unless otherwise indicated. […] The absorbance was then read at 405 nm on a SAFIRE^2™ plate reader (Tecan). […]
Z′ for the produced GC-C-expressing cell line was calculated using a direct competitive ELISA assay. […] Absorbance (corresponding to cGMP levels) in the two conditions was monitored using a SAFIRE^2™ plate reader (Tecan). […]

human GC-C [2] = molecular target: T1, human GC-C; conditions: Forte et al. 1999; cited from earlier work
[3] = system: human bitter receptor-Gα15 cell lines; experiment: isoproterenol dose response (intracellular free calcium) in human bitter receptor-Gα15 cell lines; type: cell-based; conditions: change in intracellular free calcium, read-out: EC50 in a dose response curve conducted with the cell or cell line
Excerpt: In some embodiments, the bitter receptor is a functional bitter receptor. In some embodiments, the cell or cell line has a change in the concentration of intracellular free calcium when contacted with isoproterenol. […] In some embodiments, the cell or cell line has a signal to noise ratio of greater than 1.
According to yet another aspect of the present invention, a method of identifying a modulator of a bitter receptor function comprises: a) exposing a cell or cell line that stably expresses a bitter receptor to a test compound; and b) detecting a change in a function of the bitter receptor. In some embodiments, the detecting utilizes an assay that measures intracellular free calcium. In some embodiments, the intracellular free calcium is measured using one or more calcium-sensitive fluorescent dyes, a fluorescence microscope, and optionally a fluorescent plate reader, wherein at least one fluorescent dye binds free calcium. In some other embodiments, the intracellular free calcium is monitored by real-time imaging using one or more calcium-sensitive fluorescent dyes, wherein at least one fluorescent dye binds free calcium.
FIG. 16 is a graph showing dose response curves of relative responses to isoproterenol in 25 human bitter receptor-Gα15 cell lines.

human CFTR = experiment: Fluorescence membrane potential assay, CHO cell lines stably expressing CFTR; type: cell-based; conditions: 15,000 cells/well, 384-well plate; read-out: EC50 (cell fluorescence response)
Procedure: CHO cell lines stably expressing CFTR were maintained under standard cell culture conditions in Ham's F12 medium supplemented with 10% fetal bovine serum and glutamine. On the day before assay, the cells were harvested from stock plates and plated into black clear-bottom 384 well assay plates. The assay plates were maintained in a 37° C. cell culture incubator under 5% CO2 for 22-24 hours. The media was then removed from the assay plates and blue membrane potential dye (Molecular Devices Inc.) diluted in loading buffer (137 mM NaCl, 5 mM KCl, 1.25 mM CaCl2, 25 mM HEPES, 10 mM glucose) was added and allowed to incubate for 1 hour at 37° C. […] The cellular response as a function of changes in cell fluorescence was monitored over time by a fluorescent plate reader (Hamamatsu FDSS). […] Z' value for the produced stable CFTR-expressing cell line was calculated using a high-throughput compatible fluorescence membrane potential assay. The fluorescence membrane potential assay protocol was performed substantially according to the protocol in Example 12. […] Cell responses in the two conditions were monitored using a fluorescent plate reader (Hamamatsu FDSS). Mean and standard deviations in the two conditions were calculated and Z' was computed using the method disclosed in Zhang et al., J Biomol Screen, 4(2): 67-73, (1999). […]

T1 sequence (P25092 24-1073 F281L): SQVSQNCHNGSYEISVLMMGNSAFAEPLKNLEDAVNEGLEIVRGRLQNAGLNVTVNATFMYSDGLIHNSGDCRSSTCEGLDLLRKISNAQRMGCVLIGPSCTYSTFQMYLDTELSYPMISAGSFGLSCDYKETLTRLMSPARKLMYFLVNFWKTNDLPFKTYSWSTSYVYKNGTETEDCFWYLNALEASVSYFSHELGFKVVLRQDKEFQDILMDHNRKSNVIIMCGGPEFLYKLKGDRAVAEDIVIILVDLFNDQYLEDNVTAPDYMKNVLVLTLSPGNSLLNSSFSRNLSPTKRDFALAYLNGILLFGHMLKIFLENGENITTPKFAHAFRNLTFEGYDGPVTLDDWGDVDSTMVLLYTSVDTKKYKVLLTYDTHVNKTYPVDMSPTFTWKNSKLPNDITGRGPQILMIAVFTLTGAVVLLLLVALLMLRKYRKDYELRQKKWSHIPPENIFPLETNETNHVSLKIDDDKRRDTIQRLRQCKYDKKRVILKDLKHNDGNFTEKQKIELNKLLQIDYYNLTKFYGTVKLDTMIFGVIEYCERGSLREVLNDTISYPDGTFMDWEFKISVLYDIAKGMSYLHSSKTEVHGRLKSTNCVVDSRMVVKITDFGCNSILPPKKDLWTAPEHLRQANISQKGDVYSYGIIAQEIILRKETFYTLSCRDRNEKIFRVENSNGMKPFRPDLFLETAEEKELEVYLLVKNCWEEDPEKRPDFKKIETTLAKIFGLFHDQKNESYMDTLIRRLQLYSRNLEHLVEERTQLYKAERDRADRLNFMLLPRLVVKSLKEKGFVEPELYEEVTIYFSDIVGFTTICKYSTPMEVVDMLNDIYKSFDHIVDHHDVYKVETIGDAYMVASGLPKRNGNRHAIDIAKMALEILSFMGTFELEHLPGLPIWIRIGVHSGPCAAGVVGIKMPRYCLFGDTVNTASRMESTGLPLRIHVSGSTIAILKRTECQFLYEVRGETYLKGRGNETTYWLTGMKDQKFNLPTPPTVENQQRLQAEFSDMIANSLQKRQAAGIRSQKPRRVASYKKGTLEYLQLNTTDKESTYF

absorbance in cGMP ELISA (reduction corresponds to increased cGMP levels) (human GC-C [1]; 100 nM guanylin): Reduction in absorbance
EC50 (human GC-C [1]; 30 minutes treatment, 96-well plate, read-out: EC50 value (cGMP response)): 1.1 nM
level of cGMP (human GC-C [1]; produced GC-C-expressing cell line, low concentrations of guanylin): 6 pmol/mL
Compound: CC[C@H](C)[C@@H]1NC(=O)[C@H](CCC(=O)O)NC(=O)[C@@H](NC(=O)[C@@H](NC(=O)CNC(=O)[C@@H]2CCCN2)[C@@H](C)O)CSSC[C@@H]2NC(=O)[C@H](C)NC(=O)[C@H](C)NC(=O)[C@H](Cc3ccc(O)cc3)NC(=O)[C@H](C)NC(=O)[C@H](CSSC[C@@H](C(=O)O)NC(=O)CNC(=O)[C@H]([C@@H](C)O)NC2=O)NC1=O [guanylin] (H-PGTCEICAYAACTGC-OH; disulfide 4-12, 7-15 (inferred); N-terminus and C-terminus assumed)
level of cGMP previously reported in other cell lines (human GC-C [2]): 3.5 pmol/mL

EC50 [3]: 1 to 20 nM
Compound: CC(C)NCC(O)c1ccc(O)c(O)c1 (stereo not drawn) [isoproterenol]

EC50 (human CFTR): 256 nM
Compound: C=C[C@@]1(C)CC(=O)[C@]2(O)[C@@]3(C)[C@@H](O)CCC(C)(C)[C@@H]3[C@H](O)[C@H](OC(C)=O)[C@@]2(C)O1 [forskolin]

Source: US20170052170A1, “NOVEL CELL LINES AND METHODS” (priority 2009, published 2017)
